Experimental data reported in US11325900B2, “5-(pyrimidin-4-yl)thiazol-2-yl urea derivatives as therapeutic agents” (AUCENTRA HOLDINGS PTY LTD, priority 2018, dated 2022).

Experiments:
CDK8/CycC = target: T1, CDK8/CycC (Homo sapiens, UniProt P49336); test: Radiometric protein kinase assay (33PanQinase Activity Assay, ProQinase); assay type: biochemical; conditions: 1.0 μM ATP, 1.0 μg/50 μL substrate RBER-IRStide, duplicate measurements, read-out: CDK8 Kinase inhibition IC50
T1 construct: purchased ProQinase GmbH, Freiburg, Germany
T1 sequence (P49336 whole entry): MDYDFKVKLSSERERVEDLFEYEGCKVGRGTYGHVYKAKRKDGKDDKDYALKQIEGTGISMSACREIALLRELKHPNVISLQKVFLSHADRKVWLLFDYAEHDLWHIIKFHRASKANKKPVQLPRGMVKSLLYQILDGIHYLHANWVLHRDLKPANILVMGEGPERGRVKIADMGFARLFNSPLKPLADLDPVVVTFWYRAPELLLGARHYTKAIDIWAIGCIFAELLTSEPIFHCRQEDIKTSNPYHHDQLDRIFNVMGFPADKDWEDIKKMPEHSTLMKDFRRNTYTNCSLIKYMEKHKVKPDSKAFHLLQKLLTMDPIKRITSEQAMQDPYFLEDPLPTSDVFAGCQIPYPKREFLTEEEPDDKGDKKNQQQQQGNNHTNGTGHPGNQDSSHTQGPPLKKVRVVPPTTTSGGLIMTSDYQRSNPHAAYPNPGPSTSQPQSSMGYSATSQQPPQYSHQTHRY
T1 sequence (P24863 whole entry partner): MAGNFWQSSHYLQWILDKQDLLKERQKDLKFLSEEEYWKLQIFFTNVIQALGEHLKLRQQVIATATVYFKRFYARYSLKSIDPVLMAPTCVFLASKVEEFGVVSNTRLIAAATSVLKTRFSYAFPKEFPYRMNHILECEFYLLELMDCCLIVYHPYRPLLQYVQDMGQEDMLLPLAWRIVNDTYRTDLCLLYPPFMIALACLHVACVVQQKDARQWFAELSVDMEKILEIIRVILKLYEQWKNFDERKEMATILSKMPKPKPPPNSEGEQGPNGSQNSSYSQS
Method in brief: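 33P radiometric kinase assay on CDK8/CycC with 1.0 μM ATP and 1.0 μg/50 μL RBER-IRStide substrate. IC50 values came from duplicate measurements. Ki was calculated from IC50 and Km(ATP).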

MV-4-11 = test: Cell viability assay (resazurin, leukemia cell lines), 72 h growth inhibition; assay type: cell-based; conditions: Homo sapiens, MV4-11, MV-4-11 cells
Source text: (§1) Compounds from Example 1 may be subjected to a standard MTT (3-(4,5-dimethylthiazol-2-yl)-2,5-diphenyltetrazolium bromide) and resazurin assays on solid tumour cell lines and leukemia cell lines, respectively, as previously reported (Wang S et al., J Med Chem 47:1662-1675, 2004 and Diab S e al. CheMedChem 9:962-972, 2014). Compound concentrations required to inhibit 50% of cell growth (GI50) can be calculated using non-linear regression analysis.

HCT-116 = test: Cell viability assay (MTT, solid tumour cell lines), 72 h growth inhibition; assay type: cell-based; conditions: Homo sapiens, HCT-116 cells
Source text: as §1

[1] = tested on: acute myeloid leukaemia (AML) cell lines; conditions: background; cited from earlier work
mouse model of AML = conditions: background; cited from earlier work

IC50 (CDK8/CycC) | GI50 (MV-4-11) | GI50 (HCT-116) | Compound | Suppression of cell growth (in words) [1] | Anticancer activity (in words) (mouse model of AML)
0.011 µM | 0.756 ± 0.12 µM | 3.04 ± 0.53 µM | CNc1nccc(-c2sc(NC(=O)Nc3ccc(OC)cc3)nc2C)n1 [Compound 45, 1-(4-Methoxyphenyl)-3-(4-methyl-5-(2-(methylamino)pyrimidin-4-yl)thiazol-2-yl)urea] | – | –
0.038 µM | 5.28 ± 0.15 µM | 5.77 ± 0.42 µM | Cc1nc(NC(=O)Nc2cccc(Cl)c2)sc1-c1ccnc(N(C)C)n1 [Compound 47, 1-(3-Chlorophenyl)-3-(5-(2-(dimethylamino)pyrimidin-4-yl)-4-methylthiazol-2-yl)urea] | – | –
0.046 µM | 5.91 ± 0.18 µM | 8.34 ± 0.6 µM | Cc1ccc(NC(=O)Nc2nc(C)c(-c3ccnc(N(C)C)n3)s2)cc1Cl [Compound 48, 1-(3-Chloro-4-methylphenyl)-3-(5-(2-(dimethylamino)pyrimidin-4-yl)-4-methylthiazol-2-yl)urea] | – | –

The next lines start with the compound.

Compound | IC50 (CDK8/CycC) | GI50 (MV-4-11) | GI50 (HCT-116) | Suppression of cell growth (in words) [1] | Anticancer activity (in words) (mouse model of AML)
Cc1nc(NC(=O)Nc2cccc(C(F)(F)F)c2)sc1-c1ccnc(N(C)C)n1 [Compound 46, 1-(5-(2-(Dimethylamino)pyrimidin-4-yl)-4-methylthiazol-2-yl)-3-(3-(trifluoromethyl)phenyl)urea] | 0.041 µM | 5.5 ± 0.49 µM | 35 ± 11.8 µM | – | –
Cc1nc(NC(=O)Nc2cccc(C(F)(F)F)c2)sc1-c1ccnc(N)n1 [Compound 51, 1-(5-(2-Aminopyrimidin-4-yl)-4-methylthiazol-2-yl)-3-(3-(trifluoromethyl)phenyl)urea] | 0.06 µM | 5.71 ± 0.59 µM | 4.32 ± 0.41 µM | – | –
cortistatin A | – | – | – | suppress cell growth | shows anticancer activity
